Reference: US20060263802A1 (priority 2003, published 2006)
Entries after “also recorded” stand apart in the source; their conditions may differ.

Assays:
Assay type in all cases: binding
[1] = test system: human monoclonal antibody CRJB
[2] = test system: human monoclonal antibody CR57
[3] = test system: human monoclonal antibody CRJA
[4] = test system: human monoclonal antibody CRJB; remark: listed apart in the source
[5] = test system: human monoclonal antibody CR57; remark: listed apart in the source
[6] = test system: human monoclonal antibody CRJA; remark: listed apart in the source

Row | Sequence | Binding of CRJB to linear peptide (PEPSCAN-ELISA signal) [1] | Binding of CR57 to linear peptide (PEPSCAN-ELISA signal) [2] | Binding of CRJA to linear peptide (PEPSCAN-ELISA signal) [3] | Binding of CRJB (10 μg/ml) to looped/cyclic peptide (PEPSCAN-ELISA signal) [4] | Binding of CR57 (10 μg/ml) to looped/cyclic peptide (PEPSCAN-ELISA signal) [5] | Binding of CRJA (10 μg/ml) to looped/cyclic peptide (PEPSCAN-ELISA signal) [6] | Binding of CRJB (10 μg/ml) to looped/cyclic peptide (PEPSCAN-ELISA) [4] | Binding of CR57 (10 μg/ml) to looped/cyclic peptide (PEPSCAN-ELISA) [5] | Binding of CRJA (10 μg/ml) to looped/cyclic peptide (PEPSCAN-ELISA) [6] | also measured
1 | VKTTKESLVIISPSV | 120 | 71 | 96 | 92 | 98 | 100 | – | – | – | –
2 | DLDPYDRSLHSRVFP | 152 | 111 | 107 | 68 | 90 | 92 | – | – | – | –
3 | ILDKLGPWSPIDIHH | 104 | 54 | 56 | 46 | 80 | 71 | – | – | – | –
4 | RTVKTTKESLVIISP | 120 | 82 | 103 | 69 | 88 | 88 | – | – | – | –
5 | MQSSLLQQHMELLES | 113 | 65 | 113 | – | – | – | 90 | 72 | 99 | –
6 | ILAIKMNGFTCTGVV | 103 | 79 | 87 | 72 | 77 | 45 | – | – | – | –
7 | YMELKVGYILAIKMN | 114 | 78 | 96 | 83 | 93 | 76 | – | – | – | –
8 | MEADAHYKSVRTWNE | 129 | 62 | 78 | – | – | – | 86 | 69 | 68 | –
9 | KCSGVAVSSTYCSTN | 130 | 88 | 111 | 83 | 101 | 78 | – | – | – | –
10 | YPDYRWLRTVKTTKE | 97 | 72 | 88 | 73 | 88 | 92 | – | – | – | –
11 | GACKLKLCGVLGLRL | 134 | 123 | 64 | – | – | – | 79 | 73 | 54 | binding of antibody CR57 to linear peptide (PEPSCAN OD) [2]: bound; strength of binding of CR57 (OD value compared with the other peptides / twice the average value) [2]: lower than twice the average value
12 | NHDYTIWMPENPRLG | 119 | 71 | 108 | 186 | 170 | 123 | – | – | – | binding of antibody CRJB to looped/cyclic peptide (PEPSCAN OD) [4]: display reactivity; also recorded: clearly bound
13 | KRASKGSETCGFVDE | 106 | 92 | 97 | – | – | – | 85 | 120 | 101 | –
14 | MTTKSVSFRRLSHLR | 116 | 59 | 74 | – | – | – | 8 | 68 | 79 | –
15 | GRCHPHVNGVFFNGI | 113 | 117 | 100 | – | – | – | 102 | 110 | 104 | –
16 | RLSHLRKLVPGFGKA | 123 | 93 | 93 | – | – | – | 111 | 111 | 106 | –
17 | EELVRKREECLDALE | 112 | 69 | 118 | – | – | – | 2 | 79 | 104 | –
18 | GVAVSSTYCSTNHDY | 114 | 79 | 83 | 80 | 111 | 96 | – | – | – | –
19 | RVFPSGKCSGVAVSS | 110 | 69 | 58 | 89 | 75 | 43 | – | – | – | –
20 | DRSLHSRVFPSGKCS | 142 | 98 | 187 | 100 | 91 | 99 | – | – | – | –
21 | YTIWMPENPRLGMSC | 132 | 97 | 111 | 132 | 191 | 93 | – | – | – | binding of antibody CR57 to looped/cyclic peptide (PEPSCAN OD) [5]: clearly bound
22 | DEAEDFVEVHLPDVH | – | – | – | – | – | – | – | – | – | Binding of human monoclonal antibody CRJB to linear peptide (PEPSCAN-ELISA signal) [1]: 136; Binding of human monoclonal antibody CR57 to linear peptide (PEPSCAN-ELISA signal) [2]: 68; Binding of human monoclonal antibody CRJA to linear peptide (PEPSCAN-ELISA signal) [3]: 105; Binding of CRJB to looped/cyclic peptide (PEPSCAN-ELISA signal) [4]: 104; Binding of CR57 to looped/cyclic peptide (PEPSCAN-ELISA signal) [5]: 89; Binding of CRJA to looped/cyclic peptide (PEPSCAN-ELISA signal) [6]: 98
23 | PTPDACRAAYNWKMA | 125 | 99 | 129 | 112 | 114 | 136 | – | – | – | –
